Source: paper PMC9942528 (Journal of medicinal chemistry, 2022)

Key:
[1] = Stability assay in rat liver microsomes; format: in vitro ADME; conditions: for microsomal CLint at 2 h, 10 µM: pH 7.4; for less stable than (R)- and (S)-11b, (R)- and (S)-11c, and 2: recovery after 30 min
[2] = system: mouse microglial N9 cells; test: Cytotoxicity, MTT assay in N9 cells; format: cell-based
[3] = rat, rat liver microsomes, pH 7.4, half-life

| SMILES | microsomal CLint at 2 h, 10 µM ([1]; rat, rat liver microsomes) [µL/min/mg] | less stable than (R)- and (S)-11b, (R)- and (S)-11c, and 2 ([1]; rat microsomes) | also measured |
| --- | --- | --- | --- |
| N#Cc1ccc(C[C@@H](NC(=O)Nc2ccc(F)cc2)C(=O)NC2CCCCNC2=O)cc1 (stereo partly drawn) [(R)-11a, (2R)-3-(4-Cyanophenyl)-2-(3-(4-fluorophenyl)ureido)-N-(2-oxoazepan-3-yl)propenamide] | 5.5 |  | half-life at 2 h, 10 µM [1, 3]: 2 h; cytotoxic effect in the MTT test [2]: did not exert any cytotoxic effects |
| N#Cc1ccc(C[C@@H](NC(=O)Nc2ccc(F)cc2)C(=O)N2CCCCC2)cc1 [(R)-11b, (R)-1-(3-(4-Cyanophenyl)-1-oxo-1-(piperidin-1-yl)propan-2-yl)-3-(4-fluorophenyl)urea] |  |  | cytotoxic effect in the MTT test [2]: did not exert any cytotoxic effects |
| N#Cc1ccc(C[C@@H](NC(=O)Nc2ccc(F)cc2)C(=O)N2CCCC2)cc1 [(R)-11c, (R)-1-(3-(4-Cyanophenyl)-1-oxo-1-(pyrrolidin-1-yl)propan-2-yl)-3-(4-fluorophenyl)urea] |  |  | cytotoxic effect in the MTT test [2]: did not exert any cytotoxic effects |
| N#Cc1ccc(C[C@@H](NC(=O)Nc2ccc(F)cc2)C(=O)N2Cc3ccccc3C2)cc1 [(R)-11d, (R)-1-(3-(4-Cyanophenyl)-1-(isoindolin-2-yl)-1-oxopropan-2-yl)-3-(4-fluorophenyl)urea] |  | 2–3 fold |  |
| N#Cc1ccc(C[C@@H](NC(=O)Nc2ccc(F)cc2)C(=O)N2CCc3ccccc32)cc1 [(R)-11e, (R)-1-(3-(4-Cyanophenyl)-1-(indolin-1-yl)-1-oxopropan-2-yl)-3-(4-fluorophenyl)urea] |  | 2–3 fold |  |
| N#Cc1ccc(C[C@@H](NC(=O)Nc2ccc(F)cc2)C(=O)N2CCc3ccccc3C2)cc1 [(R)-11f, (R)-1-(3-(4-Cyanophenyl)-1-(3,4-dihydroisoquinolin-2(1H)-yl)-1oxopropan-2-yl)-3-(4-fluorophenyl)urea] |  | 2–3 fold |  |
| N#Cc1ccc(C[C@@H](NC(=O)Nc2ccc(F)cc2)C(=O)N2CCCc3ccccc32)cc1 [(R)-11g, (R)-1-(3-(4-Cyanophenyl)-1-(3,4-dihydroquinolin-1(2H)-yl)-1-oxopropan-2-yl)-3-(4-fluorophenyl)urea] |  | 2–3 fold |  |
| N#Cc1ccc(C[C@@H](NC(=O)Nc2ccc(F)cc2)C(=O)N2CCc3cc(F)ccc32)cc1 [(R)-11i, (R)-1-(3-(4-Cyanophenyl)-1-(5-fluoroindolin-1-yl)-1-oxopropan-2-yl)-3-(4-fluorophenyl)urea] | 6.4 |  | Metabolic stability, % after 30 min incubation ([1]; rat microsomes, 10 μM, parent remaining): 58%; half-life at 10 μM [1, 3]: 1.8 h |
| N#Cc1ccc(C[C@@H](NC(=O)Nc2ccc(F)cc2)C(=O)N2CCc3ccc(F)cc32)cc1 [(R)-11l, (R)-1-(3-(4-Cyanophenyl)-1-(6-fluoroindolin-1-yl)-1-oxopropan-2-yl)-3-(4-fluorophenyl)urea] | 23.3 |  | half-life at 2 h, 10 µM [1, 3]: 0.5 h |
| N#Cc1ccc(C[C@H](NC(=O)Nc2ccc(F)cc2)C(=O)N2Cc3ccccc3C2)cc1 [(S)-11d, (S)-1-(3-(4-Cyanophenyl)-1-(isoindolin-2-yl)-1-oxopropan-2-yl)-3-(4-fluorophenyl)urea] | 24.7 | 2–3 fold | half-life at 2 h, 10 µM [1, 3]: 0.467 h |
| N#Cc1ccc(C[C@H](NC(=O)Nc2ccc(F)cc2)C(=O)N2CCCc3ccccc32)cc1 [(S)-11g, (S)-1-(3-(4-Cyanophenyl)-1-(3,4-dihydroquinolin-1(2H)-yl)-1-oxopropan-2-yl)-3-(4-fluorophenyl)urea] |  | 2–3 fold |  |
| N#Cc1ccc(C[C@H](NC(=O)Nc2ccc(F)cc2)C(=O)N2Cc3ccc(F)cc3C2)cc1 [(S)-11j, (S)-1-(3-(4-Cyanophenyl)-1-(5-fluoroisoindolin-2-yl)-1-oxopropan-2-yl)-3-(4-fluorophenyl)urea] | 4.1 |  |  |
